Results as given in US20160303095A1, “METHODS OF TREATING HEPATITIS B VIRUS” (Gilead Sciences, Inc., priority 2015, published 2016).

Tests used:
[1] = molecular target: T1, KDM4A (Homo sapiens, UniProt O75164); assay: Biochemical KDM inhibition assay (LANCE), KDM4A; details: read-out: Biochemical IC50 KDM 4A
T1 construct: host or cells: Sf9 cells
T1 sequence (O75164 1-1064): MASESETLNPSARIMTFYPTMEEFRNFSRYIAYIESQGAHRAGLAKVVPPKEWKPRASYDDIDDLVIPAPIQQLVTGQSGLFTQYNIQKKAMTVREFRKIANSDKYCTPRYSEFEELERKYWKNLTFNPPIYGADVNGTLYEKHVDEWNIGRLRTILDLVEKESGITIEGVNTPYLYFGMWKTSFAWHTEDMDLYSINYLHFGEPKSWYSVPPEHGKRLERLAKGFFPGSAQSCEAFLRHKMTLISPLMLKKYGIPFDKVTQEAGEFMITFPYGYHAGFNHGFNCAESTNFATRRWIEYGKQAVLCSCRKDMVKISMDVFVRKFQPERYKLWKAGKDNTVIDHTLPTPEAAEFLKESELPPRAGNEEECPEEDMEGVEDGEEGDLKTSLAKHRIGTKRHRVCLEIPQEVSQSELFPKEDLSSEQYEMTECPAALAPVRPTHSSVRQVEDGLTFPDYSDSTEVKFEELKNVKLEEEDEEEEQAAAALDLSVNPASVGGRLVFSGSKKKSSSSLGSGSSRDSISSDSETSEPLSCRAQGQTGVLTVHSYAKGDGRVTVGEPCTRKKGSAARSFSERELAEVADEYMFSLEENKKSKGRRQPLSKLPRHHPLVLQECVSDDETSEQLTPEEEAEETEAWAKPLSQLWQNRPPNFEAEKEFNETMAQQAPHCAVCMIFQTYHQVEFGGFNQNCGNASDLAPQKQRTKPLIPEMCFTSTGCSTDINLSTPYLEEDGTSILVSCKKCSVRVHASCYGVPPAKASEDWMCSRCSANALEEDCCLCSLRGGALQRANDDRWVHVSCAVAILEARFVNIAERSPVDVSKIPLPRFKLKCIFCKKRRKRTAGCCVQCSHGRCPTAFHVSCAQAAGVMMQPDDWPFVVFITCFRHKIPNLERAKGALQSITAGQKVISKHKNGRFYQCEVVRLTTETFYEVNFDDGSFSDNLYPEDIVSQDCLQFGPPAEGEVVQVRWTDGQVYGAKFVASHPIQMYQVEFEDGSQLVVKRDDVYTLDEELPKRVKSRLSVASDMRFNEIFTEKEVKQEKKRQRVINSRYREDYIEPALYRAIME

[2] = molecular target: T2, KDM3A (Homo sapiens, UniProt Q9Y4C1); assay: Biochemical KDM inhibition assay (LANCE), KDM3A; details: read-out: Biochemical IC50 KDM 3A
T2 construct: host or cells: Sf9 cells
T2 sequence (Q9Y4C1 1-1321): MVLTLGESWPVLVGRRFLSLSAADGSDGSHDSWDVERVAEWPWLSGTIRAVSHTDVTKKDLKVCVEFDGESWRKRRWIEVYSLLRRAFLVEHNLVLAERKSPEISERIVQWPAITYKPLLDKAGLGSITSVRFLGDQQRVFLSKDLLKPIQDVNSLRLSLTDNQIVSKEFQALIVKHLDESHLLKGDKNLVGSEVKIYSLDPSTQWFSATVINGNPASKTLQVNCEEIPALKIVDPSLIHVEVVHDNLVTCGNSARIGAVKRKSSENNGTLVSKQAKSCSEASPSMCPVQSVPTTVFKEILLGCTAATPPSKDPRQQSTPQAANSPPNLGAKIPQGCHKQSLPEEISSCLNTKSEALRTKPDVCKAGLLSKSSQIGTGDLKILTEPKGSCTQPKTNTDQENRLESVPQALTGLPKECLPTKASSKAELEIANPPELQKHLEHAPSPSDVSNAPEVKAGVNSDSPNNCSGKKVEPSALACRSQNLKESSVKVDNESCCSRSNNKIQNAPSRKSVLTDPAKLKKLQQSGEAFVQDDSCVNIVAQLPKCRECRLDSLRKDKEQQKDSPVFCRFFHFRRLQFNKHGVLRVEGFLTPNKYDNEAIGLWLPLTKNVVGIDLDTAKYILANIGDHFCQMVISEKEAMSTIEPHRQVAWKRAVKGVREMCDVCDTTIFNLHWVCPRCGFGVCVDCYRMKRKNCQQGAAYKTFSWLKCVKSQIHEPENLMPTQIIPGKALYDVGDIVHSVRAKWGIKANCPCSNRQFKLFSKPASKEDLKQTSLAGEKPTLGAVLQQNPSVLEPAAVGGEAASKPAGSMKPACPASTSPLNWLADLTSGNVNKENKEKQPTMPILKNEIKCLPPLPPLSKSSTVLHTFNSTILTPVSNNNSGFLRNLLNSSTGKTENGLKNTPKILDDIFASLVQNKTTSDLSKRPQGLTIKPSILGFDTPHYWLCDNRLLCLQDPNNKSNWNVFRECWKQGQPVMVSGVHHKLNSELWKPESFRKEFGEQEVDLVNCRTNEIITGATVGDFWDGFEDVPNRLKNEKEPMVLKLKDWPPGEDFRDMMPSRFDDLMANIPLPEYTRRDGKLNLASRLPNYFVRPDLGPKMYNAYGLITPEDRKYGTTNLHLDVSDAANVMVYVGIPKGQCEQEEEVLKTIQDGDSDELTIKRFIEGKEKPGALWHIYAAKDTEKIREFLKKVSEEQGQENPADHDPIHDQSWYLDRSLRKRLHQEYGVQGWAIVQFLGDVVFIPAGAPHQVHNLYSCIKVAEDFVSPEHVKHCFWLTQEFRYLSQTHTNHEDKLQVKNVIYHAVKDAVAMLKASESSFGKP

With `Nc1c(C(=O)O)ccnc1C(=O)O` [Example 7, reference compound] the IC50 [1] was 490 nM and the IC50 [2] was 1200 nM.

In the case of `CCN(CCN(C)C)C(=O)CNCc1cc(C(=O)O)ccn1` [Example 9], the IC50 [1] is reported as 350 nM and the IC50 [2] is reported as 1100 nM.

`Cc1cc(Cl)ccc1COc1ccnn1-c1cc(C(=O)O)ccn1` [Example 11] showed an IC50 [1] of 1000 nM and an IC50 [2] of 7500 nM.

`O=C(O)c1ccncc1Nc1nn(CCN2CCC(F)(F)CC2)c2ccc(F)cc12` [Example 13] was tested, and the IC50 [1] was 1100 nM.

Work on `N#CNC(=O)c1ccncc1Nc1nn(CCN2CCC(F)(F)CC2)c2ccc(F)cc12` [Example 14] yielded an IC50 [2] of 3900 nM.

Compound `CCN(CC)CCCCNCc1cc(C(=O)O)ccn1` [Example 18] has an IC50 [1] of 390 nM and an IC50 [2] of 5400 nM.
